{
  "source": "patent US7728034B2",
  "about": "“Treating neurological disorders using selective antagonists of persistent sodium current” (Allergan, Inc., priority 2003, dated 2010)",
  "key": {"[1]": {"system": "sound-induced seizures in DBA mice", "experiment": "Audiogenic seizure (AGS) model in DBA/2 mice", "assay_type": "in vivo, mouse", "excerpt": "This study examined the anti-seizure efficacy of Compound 1 against to reference compounds (Diazepam and Sipatrigine) using the audiogenic mouse model as the test platform.\nDBA mice are well established in the literature as a model for audiogenic seizures (AGS). This genetically based model is attractive for testing potential therapeutics in that no treatment protocol is required to create the condition. It is classified as inherited idiopathic epilepsy with no known associated organic disease.\nThe AGS response in these mice consists of a progressive sequence of behaviors. The latency to onset may vary from 2 to 15 seconds, and is age variant. The initial wild running phase may be divided into an early running phase that varies from 5 tp 20 seconds, followed by a wild running phase that continues for 10-20 seconds. Wild running may progress to tonic/clonic seizures, with loss of righting ability, respiratory suppression and death.\nWe a scoring system to quantify the effects of the test compounds on the induction of seizures. The behavioral sequence was assigned ascending numerical values (Table 1), and the highest numerical value reached by an animal was that animal's score.\nAnimals. Male DBA/2 mice were obtained from Jackson Laboratories at 21 day post partum. The animals were acclimated for 1 or 2 days prior to use. Individual animal weights were recorded immediately before treatment. Surviving animals were euthanized within three days of completion of testing.\nSeizure Induction. Mice were placed in a test chamber (25 cm i.d.) and exposed to pure tone sound of 11 kHz at a minimum of 116 dB for approximately 60 s until a sequential seizure response, consisting of an early wild running phase, followed by generalized myoclonus and tonic flexion and extension, was obtained. Non-responders were challenged up to five times. Ten animals were obtained by this method for each intended treatment group, with a standard deviation in their maximum score of less than 25%. The acoustic stimulus signal was produced using a signal generator and projected via four high-frequency ceramic speakers mounted on the roof of the chamber. Chamber calibration was performed daily to ensure consistent sound pressure. AGS behaviors were videotaped for later analysis.\nI.P. injections: The 10 animals in each treatment group were injected intra-peritoneally with the test drug in a volume of 10 mL/kg of body weight. Injections were 60 min prior to sound challenge.\nData analyses: Data were tested for normal distribution, and (when normal) were analyzed using ANOVA followed by Student's t test. When the data were not normally distributed, analysis was with the Mann-Whitney rank sum test. Significance was set at p<0.05."}, "[2]": {"experiment": "Estimated plasma concentration after i.p. dosing in the AGS study", "assay_type": "in vivo", "details": "DBA, mouse, intraperitoneal, 1 mg/kg i.p., 60 minutes after dosing"}, "[3]": {"molecular_target": "T1, HEK cells expressing Nav1.3 (HEK-Nav1.3) (Homo sapiens, UniProt Q9NY46)", "T1 construct": "expressed in transfected cells", "T1 sequence (Q9NY46 whole entry)": "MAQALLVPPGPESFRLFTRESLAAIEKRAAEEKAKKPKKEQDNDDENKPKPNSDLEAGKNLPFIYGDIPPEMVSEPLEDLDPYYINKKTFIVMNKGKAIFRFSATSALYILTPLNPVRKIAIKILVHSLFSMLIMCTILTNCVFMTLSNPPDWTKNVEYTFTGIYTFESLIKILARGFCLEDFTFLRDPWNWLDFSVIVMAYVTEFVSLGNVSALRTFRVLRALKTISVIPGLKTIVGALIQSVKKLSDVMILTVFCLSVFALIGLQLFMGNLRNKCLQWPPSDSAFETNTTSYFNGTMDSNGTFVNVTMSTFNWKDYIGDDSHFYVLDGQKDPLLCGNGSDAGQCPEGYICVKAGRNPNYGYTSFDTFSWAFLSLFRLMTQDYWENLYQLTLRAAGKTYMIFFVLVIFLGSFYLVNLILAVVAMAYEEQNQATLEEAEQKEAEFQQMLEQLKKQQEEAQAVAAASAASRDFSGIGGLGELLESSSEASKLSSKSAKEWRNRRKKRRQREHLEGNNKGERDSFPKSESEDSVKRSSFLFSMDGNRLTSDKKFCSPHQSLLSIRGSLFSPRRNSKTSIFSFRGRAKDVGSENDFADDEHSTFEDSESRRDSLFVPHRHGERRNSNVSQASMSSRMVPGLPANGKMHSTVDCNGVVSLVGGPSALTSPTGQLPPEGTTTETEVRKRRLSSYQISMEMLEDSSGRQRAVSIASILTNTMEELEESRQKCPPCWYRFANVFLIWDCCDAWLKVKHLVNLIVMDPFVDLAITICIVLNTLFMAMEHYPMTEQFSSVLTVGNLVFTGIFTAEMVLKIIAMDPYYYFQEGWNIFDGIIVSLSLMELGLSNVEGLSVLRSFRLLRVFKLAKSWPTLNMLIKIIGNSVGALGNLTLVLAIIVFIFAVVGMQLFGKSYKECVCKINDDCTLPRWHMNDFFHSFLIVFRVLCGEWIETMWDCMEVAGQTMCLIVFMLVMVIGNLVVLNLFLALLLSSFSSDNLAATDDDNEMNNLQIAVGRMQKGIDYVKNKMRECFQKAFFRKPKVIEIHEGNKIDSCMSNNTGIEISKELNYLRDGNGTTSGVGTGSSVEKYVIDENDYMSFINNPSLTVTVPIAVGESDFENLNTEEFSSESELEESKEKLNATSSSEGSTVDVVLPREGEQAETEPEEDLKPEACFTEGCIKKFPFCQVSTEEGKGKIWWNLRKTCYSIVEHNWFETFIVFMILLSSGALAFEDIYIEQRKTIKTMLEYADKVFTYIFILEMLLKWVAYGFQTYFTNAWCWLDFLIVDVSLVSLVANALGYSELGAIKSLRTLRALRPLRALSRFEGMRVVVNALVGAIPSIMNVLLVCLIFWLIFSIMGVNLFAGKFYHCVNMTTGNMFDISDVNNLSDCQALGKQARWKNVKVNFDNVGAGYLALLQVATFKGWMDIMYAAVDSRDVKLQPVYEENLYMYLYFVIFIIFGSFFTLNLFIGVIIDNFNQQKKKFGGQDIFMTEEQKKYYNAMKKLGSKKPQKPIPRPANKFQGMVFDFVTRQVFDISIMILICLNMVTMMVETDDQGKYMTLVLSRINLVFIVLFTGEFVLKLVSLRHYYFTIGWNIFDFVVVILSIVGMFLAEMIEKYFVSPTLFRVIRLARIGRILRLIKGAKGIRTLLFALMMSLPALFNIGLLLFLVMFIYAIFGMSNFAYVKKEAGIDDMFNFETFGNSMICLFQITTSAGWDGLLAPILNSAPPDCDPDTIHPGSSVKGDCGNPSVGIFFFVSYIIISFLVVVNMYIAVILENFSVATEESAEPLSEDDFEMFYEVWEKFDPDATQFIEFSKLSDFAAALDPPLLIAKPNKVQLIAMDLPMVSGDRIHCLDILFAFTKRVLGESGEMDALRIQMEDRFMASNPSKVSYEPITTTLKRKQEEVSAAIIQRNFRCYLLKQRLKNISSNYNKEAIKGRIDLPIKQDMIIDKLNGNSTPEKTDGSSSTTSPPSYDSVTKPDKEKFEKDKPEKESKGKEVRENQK", "experiment": "High-throughput VIPR FRET assay of persistent sodium current-dependent depolarization with K+ counter-screen", "assay_type": "cell-based", "details": "tetracaine 10 μM, FIG. 2"}, "[4]": {"details": "DBA mice, 60 minutes after dosing, Compound 1 1 mg/kg, references at predicted doses"}, "[5]": {"details": "DBA/2 mice, i.p. 60 min before sound challenge, scale 1-8, Diazepam 0.15, Sipatrigine 3, Compound 1 1 mg/kg, control 4.8 ± 1.9"}},
  "data": [
    {"smiles": "O=C(NCCCCc1ccccc1)c1cccs1", "note": "[Compound 1, thiophene-2-carboxylic acid (4-phenyl-butyl)-amide]", "values": [
      {"measurement": "behavioral/seizure response to sound-induced seizures", "setting": "[1]; [4]", "result": "significantly reduced"},
      {"measurement": "Seizure score (AGS), Mean ± s.d.", "setting": "[1]; [5]", "result": "3.2 ± 2.3"},
      {"measurement": "concentration at 60 min", "setting": "[2]", "result": "~5", "unit": "µM"}
    ]},
    {"smiles": "CN1C(=O)CN=C(c2ccccc2)c2cc(Cl)ccc21", "note": "[Diazepam]", "values": [
      {"measurement": "Seizure score (AGS), Mean ± s.d.", "setting": "[1]; mouse, in vivo", "result": "3.1 ± 1.1"},
      {"measurement": "behavioral/seizure response to sound-induced seizures", "setting": "[1]; mouse, in vivo, 1 mg/kg", "result": "effective"}
    ]},
    {"smiles": "CN1CCN(c2ncc(-c3cc(Cl)cc(Cl)c3Cl)c(N)n2)CC1", "note": "[Sipatrigine]", "values": [
      {"measurement": "behavioral/seizure response to sound-induced seizures", "setting": "[1]; [4]", "result": "effective"},
      {"measurement": "Seizure score (AGS), Mean ± s.d.", "setting": "[1]; [5]", "result": "3.3 ± 1.7"}
    ]},
    {"smiles": "CCCCNc1ccc(C(=O)OCCN(C)C)cc1", "note": "[Tetracaine]", "values": [
      {"measurement": "K+-dependent change in Rf/Ri (depolarization, counter-screen)", "setting": "[3]", "result": "not"},
      {"measurement": "Na+-dependent change in Rf/Ri (depolarization)", "setting": "[3]", "result": "inhibited"}
    ]}
  ]
}
